Results from US20240108654A1, “COMBINATION OF A T CELL THERAPY AND A DGK INHIBITOR” (Juno Therapeutics, Inc., priority 2021, published 2024).

Assays:
[1] = tested on: anti-CD19 CAR-expressing T cells; assay: Activated effector phenotype of CD4+ and CD8+ CAR-expressing cells under acute stimulation; format: cell-based, human
[2] = tested on: anti-CD19 CAR-expressing T cells; assay: Cytokine production (MSD) in co-culture of CAR-T cells and CD19-expressing tumor cells in presence of compound; format: cell-based, human; conditions: 48 hours co-culture with K562.CD19, Granta-519, Raji cells, compound present
Method: Supernatant was collected after 48 hours from the above co-cultures of CAR-expressing T cells and CD19-expressing tumor cells in the presence of Compound 17. Cytokine production was measured from the supernatant by meso scale discovery (MSD) analysis of the collected cell supernatants.

SMILES: CC[C@H]1CN([C@@H](CC)c2ccc(C(F)(F)F)cc2)[C@H](CC)CN1c1nc(=O)n(C)c2ccc(C#N)nc12 [Compound 17, 4-((2S,5R)-2,5-diethyl-4-((S)-1-(4-(trifluoromethyl)phenyl)propyl)piperazin-1-yl)-1-methyl-2-oxo-1,2-dihydropyrido[3,2-d]pyrimidine-6-carbonitrile]
- number of CD4+ and CD8+ CAR-expressing cells having an activated effector phenotype [1]: increased
- production of IFNγ, IL-2 and TNFα in supernatant [2]: dose-dependent increase in production of all three cytokines
